In patent US20170246130A1, “4-HYDROXYBENZOHYDARZIDE-A NEW CLASS OF ANGIOGENIC ENZYME THYMIDINE PHOSPHORYLASE INHIBITORS” (priority 2016, published 2017):
“Also recorded” adds a separate entry of the source.

Columns and labels:
[1] = target: T1, thymidine phosphorylase (E. coli) (Escherichia coli, UniProt P07650); test: Kinetic (mechanistic) studies on thymidine phosphorylase; type: biochemical; details: for Inhibition Type: Lineweaver-Burk plot; for Inhibition Type / Ki: thymidine as variable substrate; for Ki: secondary re-plot, confirmed by Dixon plot, read-out: Ki (μM ± S.E.M.), dissociation constant; for apparent Vmax (Lineweaver-burk plot) / apparent km of the enzyme (Lineweaver-burk plot): absence and different concentrations of compound
T1 construct: purchased Sigma Aldrich, USA; host or cells: Escherichia coli
T1 sequence (P07650 whole entry): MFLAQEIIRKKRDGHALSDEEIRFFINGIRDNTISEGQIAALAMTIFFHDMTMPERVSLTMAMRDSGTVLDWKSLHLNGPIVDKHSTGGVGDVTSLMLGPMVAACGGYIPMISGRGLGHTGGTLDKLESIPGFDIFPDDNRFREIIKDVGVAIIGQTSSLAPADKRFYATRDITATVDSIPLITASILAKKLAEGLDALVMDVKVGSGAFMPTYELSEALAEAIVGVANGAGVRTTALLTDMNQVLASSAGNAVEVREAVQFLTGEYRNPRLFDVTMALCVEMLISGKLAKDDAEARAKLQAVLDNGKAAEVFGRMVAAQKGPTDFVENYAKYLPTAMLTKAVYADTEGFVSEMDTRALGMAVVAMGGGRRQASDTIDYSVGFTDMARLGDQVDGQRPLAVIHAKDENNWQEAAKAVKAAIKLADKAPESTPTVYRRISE
Experimental: These studies disclose the mechanism of inhibitor binding to enzyme. Kinetic studies were carried out using thymidine as variable substrate. […] This was deduced from Lineweaver Burk plot. This compound therefore, interacted either with the amino acids of hydrophobic pocket of the enzyme or at allosteric site of the enzyme. […] Uncompetitive inhibitor causes decrease in both Km and Vmax values of the enzyme (Figure-6). […] Ki values were determined by secondary re-plot, and confirmed by Dixon plot.
Kinetic studies were carried out to find the mechanism of inhibitor action. Inhibitor could bind with enzyme in multiple ways such as in competitive, non-competitive, mixed or uncompetitive way. In kinetic assay, the enzyme (0.058 U/200 μL) was incubated with different concentrations of inhibitor for 10 min at 30° C. The reactions was then initiated by adding different concentrations (0.1875 mM-1.5 mM) of substrate (thymidine) and the resulting degradation of thymidine was measured continuously at 290 nm for 10 min on a ELISA plate reader. Every experiment was run in triplicate.
Line-weaver Burk plot was plotted to determine the type of inhibition. This was accomplished by plotting the reciprocal of the rate of reaction against the reciprocal of the substrate concentration. Ki values were determined by secondary re-plot, and reconfirmed by Dixon plot. The Ki was determined by non-linear regression equation.

[2] = target: T1, thymidine phosphorylase (E. coli); test: In-vitro thymidine phosphorylase inhibition assay (spectrophotometric); type: biochemical; details: recombinant E. coli TP, thymidine substrate, pH 7.0, 30° C., 290 nm; read-out: IC50 (μM ± S.E.M.), thymidine phosphorylase inhibition
Experimental: In vitro studies on thymidine phosphorylase were carried out in 96-well microtiter plate using Spectra Max-340 and Spectra Max-384 spectrophotometers (Molecular Devices, CA, USA). Deionized water used for buffer preparation was collected by Simplicity Water Purification System (Milipore).
Since human TP is not commercially available, we used commercially available recombinant E. coli TP (expressed in Escherichia coli) enzyme. Primary sequence of TP is mostly conserved throughout the evolution as mammalian TP share 39% sequence similarity with TP of E. coli. The mammalian enzyme also shared 65-70% similarity with the active site residues of E. coli TP enzyme (Bronckaers et al., 2009). Assay for thymidine phosphorylase inhibition was performed spectrophotometrically, following method of Bera et al. with some modifications (Bera et al., 2013).
The reaction catalyzed by thymidine phosphorylase involves reversible phosphorolysis of thymidine (FIG. 1), to thymine and 2-deoxyribose-1-phosphate (Bronckaers et al., 2009).
Reaction mixture contained 150 μL of potassium phosphate buffer (pH 7.0, 50 mM), 20 µL of enzyme (0.058 U/well) and 10 μL of test compound (0.5 mM in dimethylsulfoxide). The reaction mixture was incubated for 10 min at 30° C.
The enzyme inhibitory activities were calculated using the following formula:
Percent Inhibition=100−(O.D. of test/O.D. of control)×100
Where test is the enzyme activity with sample, and control is the enzyme activity without sample, and O.D. is optical density.
The IC50 of the compounds was calculated using EZ-Fit Enzyme Kinetic Program (Perrella Scientific Inc., Amhrest, U.S.A.).

[3] = tested on: mouse fibroblast cell line (3T3); test: MTT anti-proliferative assay, 3T3 cells; type: cell-based; details: for inhibition of the proliferation of 3T3 cells (in words): in comparison to cyclohexamide; for IC50 ± SD (μM), 3T3 Cell Line: 48 h
Experimental: (§1) Compounds found to be active in inhibiting thymidine phosphorylase were then subjected to MTT proliferation assay. Rapid proliferation is the property inherent to cancerous/tumor cells. This assay was carried out to study the effect of these compounds on proliferation of various cell lines. The cell lines which we targeted were mouse fibroblast cell line (3T3), and prostate cancer line (PC3).
(§2) Anti-proliferative activity of active compounds was evaluated by using the standard MTT (3-[4,5-dimethylthiazole-2-yl]-2,5-diphenyl-tetrazolium bromide) colorimetric assay in 96-well plate (Dimas et al., 1998).
(§3) It is a colorimetric assay that measures the reduction of MTT, by mitochondrial enzyme i.e. succinate dehydrogenase. The MTT enters into the mitochondria of cell, where it is reduced to an insoluble formazan salt (FIG. 8). The extent of MTT reduction was measured at 540 nm. As reduction of MTT can only occur in metabolically active cells, the level of activity is actually a measure of the viability of the cells (Vega-Avila and Pugsley, 2011).
(§4) Mouse fibroblast cell line 3T3 was cultured in DMEM, supplemented with 5% of FBS, 100 IU/mL of penicillin and 100 μg/mL of streptomycin, and kept at 37° C. in 5% CO2 incubator. For the preparation of cell culture, 100 μL/well of cell solution (5×10^4 cells/mL) was added into 96-well plate. The plate was incubated for overnight, and fresh medium was added after the removal of old medium. The test compounds were also added in different concentrations into the plate and plate was again incubated for 48 h. After the completion of this incubation period, 200 μL MTT (0.5 mg/mL) was added and plate was again incubated for 4 h, after this final incubation 100 μL of DMSO was added to each well. The level of MTT reduction to formazan was evaluated by change in absorbance at 540 nm using a micro plate reader (Spectra Max plus, Molecular Devices, CA, USA).

[4] = tested on: prostate cancer line (PC3); test: MTT anti-proliferative assay, PC3 cells; type: cell-based; details: for IC50 ± SD (μM), PC3 Cell Line: PC3 cells; for IC50: Homo sapiens, PC-3, PC3 cells, read-out: IC50 ± SD (μM), PC3 Cell Line; for inhibition of the proliferation of PC3 cancer cells (in words): in comparison of doxorubucin
Experimental: as §1, §2, §3, §4

| SMILES | Inhibition Type [1] | IC50 [2] [µM] | Ki [1] [µM] | inhibition of the proliferation of 3T3 cells (in words) [3] | IC50 ± SD (μM), PC3 Cell Line [4] | IC50 ± SD (μM), 3T3 Cell Line ([3]; 3T3 cells) | IC50 [4] [µM] | inhibition of the proliferation of PC3 cancer cells (in words) [4] | apparent Vmax (Lineweaver-burk plot) [1] | apparent km of the enzyme (Lineweaver-burk plot) [1] | IC50 ([3]; Mus musculus, NIH3T3, 48 h, 3T3 cells, read-out: IC50 ± SD (μM), 3T3 Cell Line) [µM] |
| --- | --- | --- | --- | --- | --- | --- | --- | --- | --- | --- | --- |
| Oc1nc(O)c2cc[nH]c2n1 [7-Deazaxanthine, 2,4-Dihydroxypyrrolo[2,3-d]pyrimidine, reference compound] | Non-Competitive |  |  |  |  |  |  |  |  |  |  |
| O=C(N/N=C/c1ccc(O)c(O)c1)c1ccc(O)cc1 [Compound 5, 4-Hydroxy-N′-[(E)-(3,4-dihydroxyphenyl)methylidene]benzohydrazide] | un-competitive; also recorded: Uncompetitive | 229.5 ± 0.4 | 176.65 ± 0.006 | significantly inhibit | Inactive |  |  |  |  |  |  |
| O=C(N/N=C/c1cc(O)c(O)cc1O)c1ccc(O)cc1 [Compound 6, 4-Hydroxy-N′-[(E)-(2,4,5-trihydroxyphenyl)methylidene]benzohydrazide] |  | 208 ± 0.9 |  | significantly inhibit | Inactive |  |  |  |  |  |  |
| COc1ccccc1/C=N/NC(=O)c1ccc(O)cc1 [Compound 9, 4-Hydroxy-N′-[(E)-(2-methoxyphenyl)methylidene]benzohydrazide] |  | 183.7 ± 1.5 |  |  | Inactive | Inactive |  |  |  |  |  |
| COc1ccc(/C=N/NC(=O)c2ccc(O)cc2)cc1 [Compound 10, 4-Hydroxy-N′-[(E)-(4-methoxyphenyl)methylidene]benzohydrazide] |  | 186 ± 2 |  |  | Inactive | Inactive |  |  |  |  |  |
| COc1ccc(/C=N/NC(=O)c2ccc(O)cc2)cc1OC [Compound 11, 4-Hydroxy-N′-[(E)-(3,4-dimethoxyphenyl)methylidene]benzohydrazide] |  | 204 ± 3 |  |  | Inactive | Inactive |  |  |  |  |  |
| O=C(N/N=C/c1ccc(Cl)cc1)c1ccc(O)cc1 [Compound 12, 4-Hydroxy-N′-[(E)-(4-chlorophenyl)methylidene]benzohydrazide] | un-competitive; also recorded: Uncompetitive | 159 ± 0.4 | 138 ± 0.009 |  | Inactive | Inactive |  |  |  |  |  |
| O=C(N/N=C/c1cccc(Cl)c1)c1ccc(O)cc1 [Compound 13, 4-Hydroxy-N′-[(E)-(3-chlorophenyl)methylidene]benzohydrazide] |  | 160.3 ± 1 |  |  | Inactive | Inactive |  |  |  |  |  |
| O=C(N/N=C/c1ccc(Br)cc1)c1ccc(O)cc1 [Compound 14, 4-Hydroxy-N′-[(E)-(4-bromophenyl)methylidene]benzohydrazide] | un-competitive; also recorded: Uncompetitive | 158 ± 1 | 80.5 ± 0.002 |  | Inactive | Inactive |  |  |  |  |  |
| Cc1ccccc1/C=N/NC(=O)c1ccc(O)cc1 [Compound 16, 4-Hydroxy-N′-[(E)-(2-methylphenyl)methylidene]benzohydrazide] |  | 177.2 ± 0.5 |  |  | Inactive | Inactive |  |  |  |  |  |
| COc1ccc(O)c(/C=N/NC(=O)c2ccc(O)cc2)c1 [Compound 20, 4-Hydroxy-N′-[(E)-(2-hydroxy-5-methoxyphenyl)methylidene]benzohydrazide] |  | 172 ± 2.7 |  | significantly inhibit |  |  | 10.5 ± 0.551 | significantly inhibit |  |  |  |
| CCOc1cccc(/C=N/NC(=O)c2ccc(O)cc2)c1O [Compound 21, 4-Hydroxy-N′-[(E)-(3-ethoxy-2-hydroxyphenyl)methylidene]benzohydrazide] |  | 190.3 ± 0.4 |  | significantly inhibit |  |  | 6.54 ± 0.278 | significantly inhibit |  |  |  |
| O=C(N/N=C/c1cc(Br)cc(Br)c1O)c1ccc(O)cc1 [Compound 24, 4-Hydroxy-N′-[(E)-(3,5-dibromo-2-hydroxyphenyl)methylidene]benzohydrazide] | Non-Competitive | 6.8 ± 0.7 | 1.75 ± 0.009 | significantly inhibit |  |  | 8.34 ± 0.965 | significantly inhibit | decreased | remains unaffected |  |
| C/C(=N\NC(=O)c1ccc(O)cc1)c1c(O)cccc1O [Compound 27, 4-Hydroxy-N′-[(E)-1-(2,6-dihydroxyphenyl)ethylidene]benzohydrazide] | un-competitive; also recorded: Uncompetitive | 176.9 ± 1.6 | 168 ± 0.003 | significantly inhibit | Inactive |  |  |  | decreased | remains unaffected |  |
| C/C(=N\NC(=O)c1ccc(O)cc1)c1cc(O)ccc1O [Compound 28, 4-Hydroxy-N′-[(E)-1-(2,5-dihydroxyphenyl)ethylidene]benzohydrazide] |  | 183.4 ± 0.9 |  | significantly inhibit | Inactive |  |  |  |  |  |  |
| COc1cccc(/C(C)=N/NC(=O)c2ccc(O)cc2)c1O [Compound 29, 4-Hydroxy-N′-[(E)-1-(2-hydroxy-3-methoxyphenyl)ethylidene]benzohydrazide] |  | 174.2 ± 1 |  | significantly inhibit |  |  | 8.48 ± 0.592 | significantly inhibit |  |  | 18.6 ± 0.6 |
